Results: patent publication US5187305A, “S-nitroso-N-alkonoylpenicillamines” (Glaxo Inc., priority 1990, dated 1993)
pIC50: −log10 of the molar value.

Columns and labels:
RAT AORTA = experiment: Aorta Vasodilation Assay, rat aorta rings (endothelium removed, phenylephrine-contracted); design: species or system male Sprague-Dawley rats; conditions: 20% O2, without methylene blue; for RELATIVE POTENCY: compared with nitroprusside; for pIC50: read-out: IC50 (relaxation)
Excerpt: (§1) The thoracic aortas removed from euthanized male Sprague-Dawley rats (200-300 g) and male New Zealand, white rabbits (1.5-3.0 kg) are cleaned of adherent connective tissue and cut into rings 3 to 5 mm in length. Endothelium is removed by rolling the rings on moist filter paper. Rings are suspended in an organ chamber containing a physiological salt solution of (mM): NaCl, 118.4; KCl, 4.7; MgSO4.H2 O, 1.2; CaCl2.2H2 O, 2.5; KH2 PO4, 1.2; NaHCO3, 25.0; and dextrose, 11.1. The bathing solution is maintained at 37° C. and half of the tissues are aerated with 95% O2 /5% CO2 and half are aerated with 20% O2 /5% CO2 /75% N2. Tissues are mounted to isometric force displacement transducers and responses are recorded on a polygraph.
(§2) All rings are gradually stretched (over a 120 min. period) to a basal resting tension of 2 g (rat) and 4 g (rabbit), which is maintained throughout the assay. During the basal tension adjustment period, the rings are exposed to KCl (40 mM) two to three times to verify tissue contractility. During this period, the effectiveness of endothelium removal is confirmed by the absence of the characteristic relaxation seen with acetylcholine (1×10^-6 M) in endothelium-intact (but not endothelium-removed) rings contracted with phenylephrine (1×10^-7 M).
(§3) Methylene blue (1×10^-5 M) is added to half of the tissues aerated at 20% O2 and 95% O2 to inhibit basal cGMP accumulation. Phenylephrine (1×10^-7 M) is then added and the rings are allowed to obtain a stable contractile response after which time, SOD (100 U/mL) is added to the tissues. The test compound is then added in a cumulative fashion. After the stabilization of the response to the last concentration of the test compound, sodium nitroprusside (1×10^-4 M) is added to induce complete relaxation.

RABBIT AORTA = experiment: Aorta Vasodilation Assay, rabbit aorta rings (endothelium removed, phenylephrine-contracted); design: species or system male New Zealand white rabbits; conditions: 20% O2, without methylene blue; for RELATIVE POTENCY: compared with nitroprusside; for pIC50: Oryctolagus cuniculus, read-out: IC50 (relaxation)
Excerpt: as §1, §2, §3

[1] = orally (including sublingually), rectally, vaginally, nasally or transdermally; cited from earlier work
[2] = compared with glyceryl trinitrate; cited from earlier work
[3] = among nitrosothiols; cited from earlier work

| Compound | RELATIVE POTENCY (RAT AORTA) | pIC50 (RAT AORTA) | RELATIVE POTENCY (RABBIT AORTA) | pIC50 (RABBIT AORTA) | Absorption [1] | Tolerance [2] | Stability [3] |
| --- | --- | --- | --- | --- | --- | --- | --- |
| CC(=O)N[C@@H](C(=O)Oc1ccccc1)C(C)(C)SN=O [(I), R^1 = PHENYL R^2 = METHYL, N-Acetyl-3-(nitrosothio)-D-valine phenyl ester] | 3.04 | 8.12 | 3.25 | 7.19 |  |  |  |
| O=[N+]([O-])OCC(CO[N+](=O)[O-])O[N+](=O)[O-] [NITROGLYCERIN, glyceryl trinitrate] | 3.76 | 8.03 | 1.15 | 7.64 |  |  |  |
| CC(=O)N[C@@H](C(=O)O)C(C)(C)SN=O [SNAP, N-acetyl-3-(nitrosothio)-D-valine] | 56 | 6.85 | 8.0 | 6.80 | poorly absorbed by these routes | much less of a problem than tolerance of gyceryl trinitrate | one of the most stable nitrosothiols known |
